Experimental data reported in ChEMBL document CHEMBL3808375, “Design of Novel Aminoglycoside Derivatives with Enhanced Suppression of Diseases-Causing Nonsense Mutations” (ACS Med Chem Lett, 2016).
In brackets after ≈: the same amount, converted by molar mass.

Columns and labels:
Bacillus spizizenii = test: microbe, parasite or virus in culture; format: functional; details: ATCC 6633
Description: Antibacterial activity against Bacillus subtilis ATCC 6633 by double microdilution assay

[1] = Binding affinity to decoding site rRNA of ribosome in TNT rabbit reticulocyte lysate using luciferase T7 control DNA plasmid assessed as inhibition of translation incubated for 60 mins by luciferase reporter gene based coupled transcription/translation assay; design: species or system Oryctolagus cuniculus
Escherichia coli = test: microbe, parasite or virus in culture; format: functional; details: R477/100
Description: Antibacterial activity against Escherichia coli R477/100 by double microdilution assay

[2] = Binding affinity to decoding site rRNA of ribosome in Escherichia coli using Escherichia coli S30 circular DNA assessed as inhibition of translation incubated for 60 mins by luciferase reporter gene based coupled transcription/translation assay
[3] = Binding affinity to decoding site rRNA of ribosome in Escherichia coli using Escherichia coli S30 circular DNA assessed as inhibition of translation incubated for 20 mins by luciferase reporter gene based coupled transcription/translation assay

Compound | MIC (Bacillus spizizenii) [µM] | IC50 [1] [µM] | MIC (Escherichia coli) [µM] | IC50 [2] [µM] | IC50 [3] [µM]
CN[C@@H]1[C@@H](O)[C@@H](O[C@@H]2[C@@H](O)[C@H](O[C@H]3O[C@H](CN)CC[C@H]3N)[C@@H](N)C[C@H]2N)OC[C@]1(C)O | < 0.75 | 62 | – | – | –
C[C@@H](O)[C@H]1O[C@H](O[C@@H]2[C@@H](O)[C@H](O)[C@@H](N)C[C@H]2N)[C@H](N)[C@@H](O)[C@@H]1O | – | 347 | – | 6 | –
C[C@H](N)[C@H]1O[C@@H](O[C@H]2[C@H](O)[C@@H](N)C[C@@H](N)[C@@H]2O[C@H]2O[C@H]([C@H](O)CO)[C@@H](O)[C@H](O)[C@H]2N)[C@H](O)[C@@H]1O | 64 (≈ 31.9 µg/mL) | 1.2 | > 257 | 1.2 | –
C[C@H](N)[C@H]1O[C@@H](O[C@H]2[C@H](O)[C@@H](N)C[C@@H](N)[C@@H]2O[C@H]2O[C@H]([C@@H](C)O)[C@@H](O)[C@H](O)[C@H]2N)[C@H](O)[C@@H]1O | 156 (≈ 75.3 µg/mL) | 1.5 | 1270 (≈ 611 µg/mL) | 1.1 | –
CN[C@@H]1[C@@H](O)[C@@H](O[C@H]2[C@H](O)[C@@H](O[C@H]3O[C@H](C(C)O)[C@@H](O)[C@H](O)[C@H]3N)[C@H](N)C[C@@H]2N)OC[C@]1(C)O (some centres undefined) | < 1.25 | – | 9 (≈ 4.47 µg/mL) | 0.01 | –
N[C@H]1[C@@H](O[C@@H]2[C@@H](O)[C@H](O)[C@@H](N)C[C@H]2N)O[C@H](C(O)CO)[C@@H](O)[C@@H]1O (mixture of isomers) | – | – | – | – | 24
N[C@H]1[C@@H](O[C@H]2[C@H](O)[C@@H](O)[C@H](N)C[C@@H]2N)O[C@H](CO)[C@@H](O)[C@@H]1O [PAROMAMINE] | – | – | – | – | 3.9

Further lines, with some results ahead:

MIC (Bacillus spizizenii) [µM] | IC50 [1] [µM] | MIC (Escherichia coli) [µM] | IC50 [2] [µM] | Compound | IC50 [3] [µM]
34 (≈ 16.5 µg/mL) | 7.5 | > 273 | 0.7 | NC[C@H]1O[C@@H](O[C@H]2[C@H](O)[C@@H](N)C[C@@H](N)[C@@H]2O[C@H]2O[C@H]([C@H](O)CO)[C@@H](O)[C@H](O)[C@H]2N)[C@H](O)[C@@H]1O | –
> 375 | 516 | > 375 | 91.9 | N[C@H]1[C@@H](O[C@@H]2[C@@H](O)[C@H](O)[C@@H](N)C[C@H]2N)O[C@H]([C@@H](O)CO)[C@@H](O)[C@@H]1O | –
311 (≈ 110 µg/mL) | 120 | > 311 | 11 | N[C@H]1[C@@H](O[C@@H]2[C@@H](O)[C@H](O)[C@@H](N)C[C@H]2N)O[C@H]([C@H](O)CO)[C@@H](O)[C@@H]1O | –
